Laboratory results taken from PMC11040648, “Highly tunable bimane-based fluorescent probes: design, synthesis, and application as a selective amyloid binding dye” (Chemical Science, 2024).

Molecular target: T1, tau (fibrils) (Homo sapiens, UniProt P10636)
T1 construct: gene MAPT; tau amyloid fibrils
Experiment: fluorescence turn-on with […] fibrils ([…] lower than αS), emission maximum […] nm
Assay type: binding

T1 sequence (P10636 1-441 isoform P10636-8): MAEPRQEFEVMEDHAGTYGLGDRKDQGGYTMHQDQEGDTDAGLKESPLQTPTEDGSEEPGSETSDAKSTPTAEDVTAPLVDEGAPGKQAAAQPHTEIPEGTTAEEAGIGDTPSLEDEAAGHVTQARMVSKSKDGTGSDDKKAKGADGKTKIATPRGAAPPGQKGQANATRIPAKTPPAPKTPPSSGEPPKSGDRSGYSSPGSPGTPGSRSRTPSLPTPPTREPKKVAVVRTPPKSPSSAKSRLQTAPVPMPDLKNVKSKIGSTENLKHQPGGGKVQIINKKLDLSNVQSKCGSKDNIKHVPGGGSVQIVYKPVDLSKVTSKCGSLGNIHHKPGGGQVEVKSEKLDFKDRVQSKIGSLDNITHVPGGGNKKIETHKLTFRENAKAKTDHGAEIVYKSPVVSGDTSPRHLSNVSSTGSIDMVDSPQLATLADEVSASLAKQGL

SMILES: Cc1c(C)n2c(/C=C/c3ccc(N(C)C)cc3)c(C)c(=O)n2c1=O [5k]
- fluorescence turn-on with 10 μM fibrils (2.8-fold lower than αS), emission maxim: although 5k binds to both αS and tau, it has a greater fluorescence activation
